Measured values: EP4678638A1, “NEW E3 UBIQUITIN LIGASE LIGAND, PROTEIN DEGRADATION AGENT AND USE THEREOF” (priority 2023, dated 2024)

Columns and labels:
EGFR = test: Western blot degradation of EGFR (H1975 Cell); type: cell-based, Human; settings: Table D2
Protocol: Conventional Western blot assay was performed to evaluate the effects of the compounds of the present disclosure on the expression of target proteins in cells.
(1) Cell Seeding and Protein Harvesting: The selected cells were processed according to the cell seeding procedure and protein harvesting procedure in Table III-2. Table III-2 Cell Seeding and Protein Harvesting Procedures
(2) To the collected supernatant, 5X SDS sample loading buffer was added, followed by denaturation at 95°C for 5 minutes. The denatured samples were then separated by SDS-PAGE electrophoresis on a polyacrylamide gel. Proteins were transferred to a nitrocellulose membrane (0.45 µm NC membrane), blocked with blocking buffer at room temperature for 1 hour, and subjected to antibody incubation and development procedures according to the antibody manufacturer's instructions (Cell Signaling Technology).
Half-Maximal Degradation Concentration value (the drug concentration required for degrading proteins by 50%, abbreviated as DC50) reads method: comparing the grayscale values of Western blot bands from drug-treated samples with those from blank DMSO-treated controls, and identifying the drug concentration range at which the grayscale value is half that of the DMSO-treated control bands.
DC50 values can be calculated using ImageJ software to measure grayscale values of Western blot bands from drug-treated samples. The concentration-response curve is fitted to estimate the drug concentration corresponding to half the grayscale value.
Target protein remaining (%) refers to the percentage of target protein remaining in hPBMC cells after treatment with protein degrader compounds.
Calculation method for target protein remaining (%): Use ImageJ software to measure grayscale values of Western blot bands from drug (protein degrader)-treated samples. The grayscale value of drug-treated bands is divided by that of internal control protein bands, and the resulting quotient is normalized to obtain the relative percentage of remaining target protein after protein degrader treatment.
Target protein degradation rate (%) = 100% - target protein remaining (%).

H2228 = test: CCK-8 proliferation, NCI-H2228 (H2228); type: cell-based; settings: Homo sapiens, NCI-H2228; Table B6, compounds designed based on the ALK inhibitors; H2228 cells; read-out: Inhibitory activity (IC50, nM) on tumor cell proliferation, H2228
Protocol: (§1) The tumor cells used herein were cultured in a cell culture medium listed in table A1 at 37°C in an incubator with 5% CO2. Prior to experimentation, all cell lines used were correctly identified by STR profiling, and tested negative for mycoplasma contamination using a mycoplasma detection kit through routine screenings. Table A1. Tumor cells and cell culture medium used in the present disclosure
(§2) IC50 values of the compounds of the present disclosure (including the compounds in Table 1, and compounds of examples) were measured using the Meilun Cell Counting Kit-8 kit from Dalian Meilun Biotech Co., Ltd. Assay details are as follows: tumor cells were seeded in a 96-well plate at a density listed in Table A2. After 24h, 100 µL of the inoculated cells were treated with 0.5µL of the compounds of the present disclosure (including the compounds in Tables 1 and 2, and compounds of examples) at 10 different successively decreasing concentrations (starting at the highest concentration of 10µM; 5-fold serial dilutions). After the cells were treated with the compounds of the present disclosure for a period of time, the cell viability detection reagent was added to the culture medium for cell viability assessment according to the instructions provided with the CCK-8 kit. […] The growth inhibition of the compounds of the present disclosure on cells was plotted by Prism Graphpad software, and the IC50 values of the compounds of the present disclosure were calculated therefrom. […] Seeding protocol and treatment time for tumor cells

MCF7 = test: CCK-8 proliferation, MCF7 (MCF-7); type: cell-based; settings: Homo sapiens, MCF7; Table B6, compounds designed based on the ALK inhibitors; MCF-7 cells; read-out: Inhibitory activity (IC50, nM) on tumor cell proliferation, MCF-7
Protocol: as §1, §2

H1975 = test: CCK-8 proliferation, NCI-H1975 (H1975); type: cell-based, Human; settings: Homo sapiens, NCI-H1975; Table B6, compounds designed based on the ALK inhibitors; H1975 cells; read-out: Inhibitory activity (IC50, nM) on tumor cell proliferation, H1975
How it was run: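 CCK-8 viability readout; IC50 from growth-inhibition curve fitting. Cells plated, dosed 24h later with a 10-point series, top 10µM, 5-fold steps. Culture at 37°C, 5% CO2.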

SR = test: CCK-8 proliferation, SR; type: cell-based, Human; settings: Homo sapiens; Table B6, compounds designed based on the ALK inhibitors; SR cells; read-out: Inhibitory activity (IC50, nM) on tumor cell proliferation, SR
Protocol: as §1, §2

MM.1S = test: CCK-8 proliferation, MM.1S; type: cell-based; settings: Homo sapiens, MM1.S; Table B6, compounds designed based on the ALK inhibitors; MM.1S cells; read-out: Inhibitory activity (IC50, nM) on tumor cell proliferation, MM.1S
Protocol: as §1, §2

| Compound | Degradation of substrate protein EGFR (substrate protein remaining %) (EGFR) | other results |
| --- | --- | --- |
| COC1CCN(c2nccc(Nc3cc4c(cn3)c(N3CCC(N(C)Cc5cccc(NC6CCC(=O)NC6=O)c5)CC3)nn4C(C)C)n2)CC1 (centres unmarked) [GT-06123, 3-((3-(((1-(1-isopropyl-6-((2-(4-methoxypiperidin-1-yl)pyrimidin-4-yl)amino)-1H-pyrazolo[4,3-c]pyridin-3-yl)piperidin-4-yl)(methyl)amino)methyl)phenyl)amino)piperidine-2,6-dione] | A (A is defined as 0% ≤ substrate protein remaining % ≤ 80%) |  |
| O=C1CCN(c2ccc(CN3C[C@@H]4C[C@H]3CN4c3ccc(-c4cc(F)c5c(c4)C(=O)N(C(C(=O)Nc4nccs4)c4ncn6c4CCC6)C5)cc3)cn2)C(=O)N1 (stereo partly drawn) [GT-05120, 2-(6,7-dihydro-5H-pyrrolo[1,2-c]imidazol-1-yl)-2-(6-(4-((1S,4S)-5-((6-(2,4-dioxotetrahydropyrimidin-1(2H)-yl)pyridin-3-yl)methyl)-2,5-diazabicyclo[2.2.1]heptan-2-yl)phenyl)-4-fluoro-1-oxoisoindolin-2-yl)-N-(thiazol-2-yl)acetamide] | A (A is defined as 0% ≤ substrate protein remaining % ≤ 80%) |  |
| CCc1cc2c(cc1N1CCC(N3CCN(Cc4cncc(C5CCC(=O)NC5=O)c4)CC3)CC1)C(C)(C)c1[nH]c3cc(C#N)ccc3c1C2=O (centres unmarked) [GT-07706, 8-(4-(4-((5-(2,6-dioxopiperidin-3-yl)pyridin-3-yl)methyl)piperazin-1-yl)piperidin-1-yl)-9-ethyl-6,6-dimethyl-11-oxo-6,11-dihydro-5H-benzo[b]carbazole-3-carbonitrile] |  | IC50 (H2228): 50 to 100 nM; IC50 (MCF7): 500 to 1000 nM; IC50 (H1975): 500 to 1000 nM; IC50 (SR): 1 to 10 nM; IC50 (MM.1S): 500 to 1000 nM |
| COC1CCN(c2nccc(Nc3cc4c(cn3)c(N3CCC(N(C)Cc5ccc(C6CCC(=O)NC6=O)cc5)CC3)nn4C(C)C)n2)CC1 (centres unmarked) [GT-06120, 3-(4-(((1-(1-isopropyl-6-((2-(4-methoxypiperidin-1-yl)pyrimidin-4-yl)amino)-1H-pyrazolo[4,3-c]pyridin-3-yl)piperidin-4-yl)(methyl)amino)methyl)phenyl)piperidine-2,6-dione] | A (A is defined as 0% ≤ substrate protein remaining % ≤ 80%) |  |
| CC(C)n1nc(N2CCN(Cc3ccc(N4CCC(=O)NC4=O)nc3)CC2)c2cnc(Nc3ccnc(-c4cnn(S(=O)(=O)C5CC5)c4)n3)cc21 [GT-06015, 1-(5-((4-(6-((2-(1-(cyclopropylsulfonyl)-1H-pyrazol-4-yl)pyrimidin-4-yl)amino)-1-isopropyl-1H-pyrazolo[4,3-c]pyridin-3-yl)piperazin-1-yl)methyl)pyridin-2-yl)dihydropyrimidine-2,4(1H,3H)-dione] | A (A is defined as 0% ≤ substrate protein remaining % ≤ 80%) |  |
| CC(C)n1nc(N2CCC(N3CCN(Cc4ccc(N5CCC(=O)NC5=O)cc4)CC3)CC2)c2cnc(Nc3ccnc(-c4cnn(S(=O)(=O)C5CC5)c4)n3)cc21 [GT-06079, 1-(4-((4-(1-(6-((2-(1-(cyclopropylsulfonyl)-1H-pyrazol-4-yl)pyrimidin-4-yl)amino)-1-isopropyl-1H-pyrazolo[4,3-c]pyridin-3-yl)piperidin-4-yl)piperazin-1-yl)methyl)phenyl)dihydropyr imidine-2,4(1H,3H)-dione] | A (A is defined as 0% ≤ substrate protein remaining % ≤ 80%) |  |
| CN(Cc1cccc(NC2CCC(=O)NC2=O)c1)C1CCN(c2ccc(Nc3ncc4nc(Nc5ccccc5)n(C5CCCC5)c4n3)cc2)CC1 (centres unmarked) [GT-07094, 3-((3-(((1-(4-((9-cyclopentyl-8-(phenylamino)-9H-purin-2-yl)amino)phenyl)piperidin-4-yl)(methyl)amino)methyl)phenyl)amino)piperidine-2,6-dione] | A (A is defined as 0% ≤ substrate protein remaining % ≤ 80%) |  |
| O=C1CCN(c2ccc(CN3C4CCC3CN(c3ccc(-c5cc(F)c6c(c5)C(=O)N(C(C(=O)Nc5nccs5)c5ncn7c5CCC7)C6)cc3)C4)cn2)C(=O)N1 (centres unmarked) [GT-06256, 2-(6,7-dihydro-5H-pyrrolo[1,2-c]imidazol-1-yl)-2-(6-(4-(8-((6-(2,4-dioxotetrahydropyrimidin-1(2H)-yl)pyridin-3-yl)methyl)-3,8-diazabicyclo[3.2.1]octan-3-yl)phenyl)-4-fluoro-1-oxoisoindolin-2-yl)-N-(thiazol-2-yl)acetamide] | A (A is defined as 0% ≤ substrate protein remaining % ≤ 80%) |  |
| CC(C)n1nc(N2CCC(N3CCN(Cc4cccc(NC5CCC(=O)NC5=O)c4)CC3)CC2)c2cnc(Nc3ccnc(-c4cnn(S(=O)(=O)C5CC5)c4)n3)cc21 (centres unmarked) [GT-06083, 3-((3-((4-(1-(6-((2-(1-(cyclopropylsulfonyl)-1H-pyrazol-4-yl)pyrimidin-4-yl)amino)-1-isopropyl-1H-pyrazolo[4,3-c]pyridin-3-yl)piperidin-4-yl)piperazin-1-yl)methyl)phenyl)amino)pip eridine-2,6-dione] | A (A is defined as 0% ≤ substrate protein remaining % ≤ 80%) |  |
| COC1CCN(c2nccc(Nc3cc4c(cn3)c(N3CCC(N(C)Cc5ccc(N6CCC(=O)NC6=O)cc5)CC3)nn4C(C)C)n2)CC1 [GT-06121, 1-(4-(((1-(1-isopropyl-6-((2-(4-methoxypiperidin-1-yl)pyrimidin-4-yl)amino)-1H-pyrazolo[4,3-c]pyridin-3-yl)piperidin-4-yl)(methyl)amino)methyl)phenyl)dihydropyrimidine-2,4(1H,3H)-dione] | A (A is defined as 0% ≤ substrate protein remaining % ≤ 80%) |  |
| CN(Cc1ccc(N2CCC(=O)NC2=O)cn1)C1CCN(c2ccc(Nc3ncc4nc(Nc5ccccc5)n(C5CCCC5)c4n3)cc2)CC1 [GT-07093, 1-(6-(((1-(4-((9-cyclopentyl-8-(phenylamino)-9H-purin-2-yl)amino)phenyl)piperidin-4-yl)(methyl)amino)methyl)pyridin-3-yl)dihydropyrimidine-2,4(1H,3H)-dione] | A (A is defined as 0% ≤ substrate protein remaining % ≤ 80%) |  |
| COc1cc(N2CCN(Cc3ccc(C4CCC(=O)NC4=O)c(F)c3)CC2)c(C)cc1Nc1ncc(Br)c(Nc2ccc3nccnc3c2P(C)(C)=O)n1 (centres unmarked) [GT-03914, 3-(4-((4-(4-((5-bromo-4-((5-(dimethylphosphoryl)quinoxalin-6-yl)amino)pyrimidin-2-yl)amino)-5-methoxy-2-methylphenyl)piperazin-1-yl)methyl)-2-fluorophenyl)piperidine-2,6-dione] | A (A is defined as 0% ≤ substrate protein remaining % ≤ 80%) |  |
| COC1CCN(c2nccc(Nc3cc4c(cn3)c(N3CCN(Cc5ccc(N6CCC(=O)NC6=O)cn5)CC3)nn4C(C)C)n2)CC1 [GT-06039, 1-(6-((4-(1-isopropyl-6-((2-(4-methoxypiperidin-1-yl)pyrimidin-4-yl)amino)-1H-pyrazolo[4,3-c]pyridin-3-yl)piperazin-1-yl)methyl)pyridin-3-yl)dihydropyrimidine-2,4(1H,3H)-dione] | A (A is defined as 0% ≤ substrate protein remaining % ≤ 80%) |  |
